Common to all, as to assay: relative viability (nuclei count vs DMSO), 5 days (fraction); higher = more cells survive
Compound in the test “Bortezomib + OSI-027”: CC(C)C[C@H](NC(=O)[C@H](Cc1ccccc1)NC(=O)c1cnccn1)B(O)O [Bortezomib] + COc1cccc2cc(-c3nc([C@H]4CC[C@H](C(=O)O)CC4)n4ncnc(N)c34)[nH]c12 [OSI-027] (partner 0.5 µM)
An outline of the steps: (§1)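 The day after seeding in 1536-well plates, lung cancer cell lines were treated by pin tool with a single drug, or with a fixed anchor-drug dose together with five library-drug doses (not always all listed) in √10 steps. After 5 days, a combined fix-and-stain solution (final 0.05% Triton X-100, 1% formaldehyde, 1 ug/ml Hoechst) was added. Nuclei counted on 4× images gave relative viability as treated counts over vehicle counts, reported as the median of duplicate plates.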

Compound in test [1]: CC1=CC(=NN1)NC2=CC(=NC(=N2)/C=C/C3=CC=CC=C3)N4CCN(CC4)C + Cc1nc(Nc2ncc(C(=O)Nc3c(C)cccc3Cl)s2)cc(N2CCN(CCO)CC2)n1 [Dasatinib] (partner 0.075 µM)
An outline of the steps:
as §1

Compound in test [2]: CC1=CC(=NN1)NC2=CC(=NC(=N2)/C=C/C3=CC=CC=C3)N4CCN(CC4)C + Nc1ncn([C@H]2C[C@H](O)[C@@H](CO)O2)c(=O)n1 [Decitabine] (partner 2 µM)
Summed up:
as §1

Compound in the test “Obatoclax + Lapatinib”: COC1=CC(c2cc3ccccc3[nH]2)=N/C1=C\c1[nH]c(C)cc1C [Obatoclax] + CS(=O)(=O)CCNCc1ccc(-c2ccc3ncnc(Nc4ccc(OCc5cccc(F)c5)c(Cl)c4)c3c2)o1 [Lapatinib] (partner 2 µM)
An outline of the steps: as §1

As to NCI-H1975, the relative viability in the test with Bortezomib + OSI-027 (first compound 0.0002 µM) came to 0.674; with Bortezomib + OSI-027 (first compound 0.000632 µM) it was 0.624; in the test with Bortezomib + OSI-027 (first compound 0.002 µM) it was 0.196; with Bortezomib + OSI-027 (first compound 0.006325 µM) it was 0.111; with Bortezomib + OSI-027 (first compound 0.02 µM), 0.106; in test [1] (first compound 0.08 µM), 0.356. Also, the relative viability in test [1] (first compound 0.253 µM) was 0.394; in test [1] (first compound 0.8 µM), 0.325; in test [1] (first compound 2.53 µM), 0.124; in test [1] (first compound 8 µM), 0.061; in test [2] (first compound 0.08 µM) it was 0.377; in test [2] (first compound 0.253 µM) it was 0.406. Also, the relative viability in test [2] (first compound 0.8 µM) is 0.344; in test [2] (first compound 2.53 µM), 0.314; in test [2] (first compound 8 µM) it was 0.154; with Obatoclax + Lapatinib (first compound 0.01 µM), 1.01; with Obatoclax + Lapatinib (first compound 0.03162 µM) it was 0.823; with Obatoclax + Lapatinib (first compound 0.1 µM), 0.649. The relative viability worked out at 0.825 in the test with Obatoclax + Lapatinib (first compound 0.3162 µM) and 0.341 with Obatoclax + Lapatinib (first compound 1 µM).

Regarding COR-L 105, the relative viability with Bortezomib + OSI-027 (first compound 0.0002 µM) was 0.747; with Bortezomib + OSI-027 (first compound 0.000632 µM), 0.606; in the test with Bortezomib + OSI-027 (first compound 0.002 µM), 0.456; with Bortezomib + OSI-027 (first compound 0.006325 µM), 0.316; with Bortezomib + OSI-027 (first compound 0.02 µM) it was 0.272; in test [1] (first compound 0.08 µM) it was 0.388. The relative viability turned out to be 0.369 in test [1] (first compound 0.253 µM); 0.302 in test [1] (first compound 0.8 µM); 0.207 in test [1] (first compound 2.53 µM); 0.153 in test [1] (first compound 8 µM); 0.549 in test [2] (first compound 0.08 µM); 0.847 in test [2] (first compound 0.253 µM). Also, the relative viability was 0.624 in test [2] (first compound 0.8 µM); 0.425 in test [2] (first compound 2.53 µM); 0.235 in test [2] (first compound 8 µM); 0.368 with Obatoclax + Lapatinib (first compound 0.01 µM); 0.318 with Obatoclax + Lapatinib (first compound 0.03162 µM); 0.369 with Obatoclax + Lapatinib (first compound 0.1 µM). For the same cell line, the relative viability with Obatoclax + Lapatinib (first compound 0.3162 µM) stood at 0.294; with Obatoclax + Lapatinib (first compound 1 µM), 0.252.

As to LK-2, the relative viability came out at 0.223 in the test with Bortezomib + OSI-027 (first compound 0.0002 µM); 0.174 with Bortezomib + OSI-027 (first compound 0.000632 µM); 0.175 in the test with Bortezomib + OSI-027 (first compound 0.002 µM); 0.175 in the test with Bortezomib + OSI-027 (first compound 0.006325 µM); 0.177 with Bortezomib + OSI-027 (first compound 0.02 µM); 0.242 in test [1] (first compound 0.08 µM). Moreover, the relative viability in test [1] (first compound 0.253 µM) is 0.246; in test [1] (first compound 0.8 µM), 0.226; in test [1] (first compound 2.53 µM) it was 0.139; in test [1] (first compound 8 µM), 0.0998; in test [2] (first compound 0.08 µM), 0.215; in test [2] (first compound 0.253 µM) it was 0.327. In addition, the relative viability in test [2] (first compound 0.8 µM) stood at 0.274; in test [2] (first compound 2.53 µM), 0.175; in test [2] (first compound 8 µM), 0.0787; with Obatoclax + Lapatinib (first compound 0.01 µM) it was 0.994; with Obatoclax + Lapatinib (first compound 0.03162 µM), 0.838; with Obatoclax + Lapatinib (first compound 0.1 µM), 0.915. For the same cell line, the values for the relative viability in the test with Obatoclax + Lapatinib (first compound 0.3162 µM) and in the test with Obatoclax + Lapatinib (first compound 1 µM) were 0.886 and 0.805, respectively.

On to EKVX, for which the relative viability in the test with Bortezomib + OSI-027 (first compound 0.0002 µM) was 0.725; with Bortezomib + OSI-027 (first compound 0.000632 µM), 0.672; with Bortezomib + OSI-027 (first compound 0.002 µM), 0.79; in the test with Bortezomib + OSI-027 (first compound 0.006325 µM), 0.605; with Bortezomib + OSI-027 (first compound 0.02 µM), 0.109; in test [1] (first compound 0.08 µM), 0.55. Also, the relative viability in test [1] (first compound 0.253 µM) is 0.579; in test [1] (first compound 0.8 µM), 0.603; in test [1] (first compound 2.53 µM), 0.499; in test [1] (first compound 8 µM), 0.151; in test [2] (first compound 0.08 µM), 0.299; in test [2] (first compound 0.253 µM), 0.297. In addition, the relative viability was 0.374 in test [2] (first compound 0.8 µM); 0.331 in test [2] (first compound 2.53 µM); 0.152 in test [2] (first compound 8 µM); 0.208 with Obatoclax + Lapatinib (first compound 0.01 µM); 0.19 with Obatoclax + Lapatinib (first compound 0.03162 µM); 0.215 with Obatoclax + Lapatinib (first compound 0.1 µM). Besides, the results for the relative viability in the test with Obatoclax + Lapatinib (first compound 0.3162 µM) and in the test with Obatoclax + Lapatinib (first compound 1 µM) were 0.199 and 0.189, respectively.

NCI-H2009: the relative viability with Bortezomib + OSI-027 (first compound 0.0002 µM) worked out at 0.664; with Bortezomib + OSI-027 (first compound 0.000632 µM) it was 0.585; in the test with Bortezomib + OSI-027 (first compound 0.002 µM) it was 0.486; in the test with Bortezomib + OSI-027 (first compound 0.006325 µM), 0.0717; in the test with Bortezomib + OSI-027 (first compound 0.02 µM), 0.084; in test [1] (first compound 0.08 µM) it was 0.325. For the same cell line, the relative viability stood at 0.307 in test [1] (first compound 0.253 µM); 0.329 in test [1] (first compound 0.8 µM); 0.15 in test [1] (first compound 2.53 µM); 0.0844 in test [1] (first compound 8 µM); 0.357 in test [2] (first compound 0.08 µM); 0.377 in test [2] (first compound 0.253 µM). Also, the relative viability in test [2] (first compound 0.8 µM) turned out to be 0.444; in test [2] (first compound 2.53 µM), 0.282; in test [2] (first compound 8 µM), 0.151; with Obatoclax + Lapatinib (first compound 0.01 µM) it was 0.92; with Obatoclax + Lapatinib (first compound 0.03162 µM), 1; in the test with Obatoclax + Lapatinib (first compound 0.1 µM) it was 0.447. The relative viability was found to be 0.234 with Obatoclax + Lapatinib (first compound 0.3162 µM) and 0.222 in the test with Obatoclax + Lapatinib (first compound 1 µM).

In the case of NCI-H838, the relative viability is 0.355 with Bortezomib + OSI-027 (first compound 0.0002 µM); 0.363 with Bortezomib + OSI-027 (first compound 0.000632 µM); 0.44 with Bortezomib + OSI-027 (first compound 0.002 µM); 0.178 in the test with Bortezomib + OSI-027 (first compound 0.006325 µM); 0.131 in the test with Bortezomib + OSI-027 (first compound 0.02 µM); 0.3 in test [1] (first compound 0.08 µM). The relative viability in test [1] (first compound 0.253 µM) was 0.279; in test [1] (first compound 0.8 µM), 0.247; in test [1] (first compound 2.53 µM), 0.255; in test [1] (first compound 8 µM), 0.141; in test [2] (first compound 0.08 µM), 0.487; in test [2] (first compound 0.253 µM), 0.416. Moreover, the relative viability in test [2] (first compound 0.8 µM) is 0.384; in test [2] (first compound 2.53 µM) it was 0.208; in test [2] (first compound 8 µM), 0.141; with Obatoclax + Lapatinib (first compound 0.01 µM) it was 1.07; with Obatoclax + Lapatinib (first compound 0.03162 µM), 1.17; with Obatoclax + Lapatinib (first compound 0.1 µM), 0.465. Also, the relative viability in the test with Obatoclax + Lapatinib (first compound 0.3162 µM) was 0.62; with Obatoclax + Lapatinib (first compound 1 µM), 0.377.

As for NCI-H2085, the relative viability in the test with Bortezomib + OSI-027 (first compound 0.0002 µM) turned out to be 0.684; in the test with Bortezomib + OSI-027 (first compound 0.000632 µM) it was 0.675; in the test with Bortezomib + OSI-027 (first compound 0.002 µM), 0.787; with Bortezomib + OSI-027 (first compound 0.006325 µM), 0.286; with Bortezomib + OSI-027 (first compound 0.02 µM), 0.204; in test [1] (first compound 0.08 µM), 0.245. Also, the relative viability in test [1] (first compound 0.253 µM) came to 0.232; in test [1] (first compound 0.8 µM), 0.276; in test [1] (first compound 2.53 µM) it was 0.255; in test [1] (first compound 8 µM), 0.2; in test [2] (first compound 0.08 µM), 0.541; in test [2] (first compound 0.253 µM), 0.507. In addition, the relative viability turned out to be 0.56 in test [2] (first compound 0.8 µM); 0.336 in test [2] (first compound 2.53 µM); 0.298 in test [2] (first compound 8 µM); 0.808 with Obatoclax + Lapatinib (first compound 0.01 µM); 0.695 in the test with Obatoclax + Lapatinib (first compound 0.03162 µM); 0.686 in the test with Obatoclax + Lapatinib (first compound 0.1 µM). Also, the relative viability in the test with Obatoclax + Lapatinib (first compound 0.3162 µM) was 0.533; with Obatoclax + Lapatinib (first compound 1 µM), 0.394.

The values are drawn from the supplement of paper PMC10307832.
